Assay results taken from patent US20240360122A1, “POLYMORPHIC FORMS AND SALTS OF A GLP-1R AGONIST” (Terns (Suzhou) Biotechnology Co., Ltd., priority 2023, published 2024).
Entries after “also recorded” stand apart in the source; their conditions may differ. Structures can show the parent of a compound that is named as a salt. Where two headings read alike, the source gives them in different places.

How the values were obtained:
Type in all cases: physicochemical
[1] = pH solubility in pH 1.0-8.0 buffers at RT; conditions: thermodynamic from solid; for solubility: pH buffers, 2 and 24 hours
Protocol: The procedures were listed below:
1. […] Add 2 ml, of the corresponding medium.
2. Mixed well and stirred at RT (1000 rpm). Check the pH and adjust it back to the target pH after dosing.
3. Sampled after 2 hours and 24 hours. The supernatant was isolated by centrifugation (12000 rpm, 5 min) and filtration (0.22 μm, PTFE) for pH and HPLC test.

[2] = Kinetic solubility in water and bio-relevant media (SGF, FaSSIF, FeSSIF) at 37° C.; conditions: for S: Solubility: calculated by freeform; for FC: Form change: residual solids by XRPD; for solubility at 2 h: highest solubility
How it was run: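 Compound rolled at 37 °C (~25 rpm) in water, SGF (pH 1.8, NaCl, Triton X-100), FaSSIF (pH 6.5 phosphate, SIF powder) or FeSSIF (pH 5.0 acetate, SIF powder). Samples at 1, 2, 4 and 24 h were centrifuged and 0.45 μm-filtered; filtrate concentration and pH measured, residual solid checked by XRPD.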

[3] = Solubility of Meglumine salt Type A in SGF and FaSSIF at 37° C. with adjusting pH to that of the blank medium; conditions: for solubility at 2 h / solubility at 4 h: read-out: S (solubility)
Protocol: Detailed procedures are as follows.
1) Added ˜40 mg of sample into a 5-mL glass vial. Add 4 mL of medium. Adjust pH to 1.8 or 6.5 using HCl (1 M) or NaOH (1 M).
2) Rolled at 37° C. (˜25 rpm). Sample at 1, 2, 4 and 24 hrs.
3) At each time-point, sample 0.8 mL of solution or suspension into a centrifuge tube prior to centrifugation (12000 rpm, 37° C., 5 min) and filtration through 0.45 μm PTFE membrane.
4) Adjusted pH of the rest of suspension to 1.8 or 6.5 using HCl (1 M) or NaOH (1 M).

[4] = Slurry competition among Meglumine salt Type A/B/C; conditions: slurry competition in DMSO/EtOAc (1:6, v/v), RT and 50° C.
Protocol: The detailed procedures are as following:
Add 1 mL corresponding solvent.
2) Magnetically stir at RT or 50° C. for 1 day. Filter through 0.45 μm PTFE filter to obtain clear solution.
4) Magnetically stir at RT or 50° C. for 1 day. Test XRPD of the wet cake.

[5] = pH 1.8, simulated gastric fluid, thermodynamic from solid, SGF, pH adjusted to 1.8, 37° C., read-out: solubility in SGF
[6] = pH 6.5, thermodynamic from solid, FaSSIF, pH adjusted to 6.5, 37° C., read-out: solubility in FaSSIF

N#Cc1ccc(COc2cccc(C3CCN(Cc4nc5ccc(C(=O)O)cc5n4Cc4cncs4)CC3)n2)c(F)c1 [Meglumine salt Type A]
solubility at 2 h ([1]; pH 3.5 buffer, pH 3.5, aqueous buffer, LOQ = 0.0001 mg/mL): 21 µg/mL | solubility at 2 h ([1]; pH 4.5 buffer, pH 4.5, aqueous buffer, LOQ = 0.0001 mg/mL): 3.7 µg/mL | solubility at 24 h ([1]; pH 4.5 buffer, pH 4.5, aqueous buffer, 24 Hours, LOQ = 0.0001 mg/mL): 0.1 µg/mL | solubility at 2 h ([1]; pH 5.5 buffer, pH 5.5, aqueous buffer, LOQ = 0.0001 mg/mL): 2.8 µg/mL | solubility ([1]; pH 1, aqueous buffer, pH 1.0 and 8.0 buffers): 150 to 1300 µg/mL | solubility ([1]; pH 2, aqueous buffer, pH 2.0 and 6.8 buffers): 16 to 200 µg/mL | solubility ([1]; pH 3.5, aqueous buffer, pH 3.5, 4.5 and 5.5 buffers): ≤ 21 µg/mL | S: Solubility ([2]; FaSSIF, 37° C., 1 hr): 900 µg/mL | FC: Form change ([2]; FaSSIF, 37° C., 1 hr): Yes | S: Solubility ([2]; FaSSIF, 37° C., 2 hrs): 1300 µg/mL | FC: Form change ([2]; FaSSIF, 37° C., 2 hrs): Yes | S: Solubility ([2]; FaSSIF, 37° C., 4 hrs): 720 µg/mL | FC: Form change ([2]; FaSSIF, 37° C., 4 hrs): Yes | S: Solubility ([2]; FaSSIF, 37° C., 24 hrs): 70 µg/mL | FC: Form change ([2]; FaSSIF, 37° C., 24 hrs): Yes | solubility at 2 h ([2]; FaSSIF, 37 °C, pH 6.5, fassif, thermodynamic from solid, FaSSIF, 37° C., read-out: solubility in FaSSIF): 1300 µg/mL | S: Solubility ([2]; FeSSIF, 37° C., 1 hr): 170 µg/mL | FC: Form change ([2]; FeSSIF, 37° C., 1 hr): Yes | S: Solubility ([2]; FeSSIF, 37° C., 2 hrs): 170 µg/mL | FC: Form change ([2]; FeSSIF, 37° C., 2 hrs): Yes | S: Solubility ([2]; FeSSIF, 37° C., 4 hrs): 86 µg/mL | FC: Form change ([2]; FeSSIF, 37° C., 4 hrs): Yes | S: Solubility ([2]; FeSSIF, 37° C., 24 hrs): 27 µg/mL | FC: Form change ([2]; FeSSIF, 37° C., 24 hrs): Yes | S: Solubility ([2]; H2O, 37° C., 1 hr): >8600 µg/mL | S: Solubility ([2]; H2O, 37° C., 2 hrs): >8900 µg/mL | S: Solubility ([2]; H2O, 37° C., 4 hrs): >8300 µg/mL | S: Solubility ([2]; H2O, 37° C., 24 hrs): 7000 µg/mL | FC: Form change ([2]; H2O, 37° C., 24 hrs): Yes | solubility compared with the other selected salts and Freeform Type C ([2]; H2O, SGF and FaSSIF, 37° C.): higher solubility than other salts and Freeform Type C; also recorded: higher solubility in H2O, SGF and FaSSIF | S: Solubility ([2]; SGF, 37° C., 1 hr): 380 µg/mL | FC: Form change ([2]; SGF, 37° C., 1 hr): Yes | S: Solubility ([2]; SGF, 37° C., 2 hrs): 720 µg/mL | FC: Form change ([2]; SGF, 37° C., 2 hrs): Yes | S: Solubility ([2]; SGF, 37° C., 4 hrs): 680 µg/mL | FC: Form change ([2]; SGF, 37° C., 4 hrs): Yes | S: Solubility ([2]; SGF, 37° C., 24 hrs): 290 µg/mL | FC: Form change ([2]; SGF, 37° C., 24 hrs): Yes | solubility at 2 h ([2]; SGF, 37 °C, pH 1.8, simulated gastric fluid, thermodynamic from solid, SGF, 37° C., read-out: solubility in SGF): 720 µg/mL | form change of residual solids (XRPD) after solubility test ([2]; all the media (H2O, SGF, FaSSIF, FeSSIF), after 24 hrs): form change was observed | Kinetic Solubility ([2]; in H2O, SGF and FaSSIF, comparison among selected salts and Freeform Type C): 1) In H2O, SGF and FaSSIF, Meglumine salt Type A exhibited higher solubility than other salts and Freeform Type C; | solubility ([2]; water, 37 °C, thermodynamic from solid, H2O, at 1, 2 and 4 hrs): > 8300 µg/mL | solubility ([2]; water, 37 °C, thermodynamic from solid, H2O, throughout the 24-hour process): ≥ 7000 µg/mL | solubility at 24 h ([2]; water, 37 °C, water, thermodynamic from solid, H2O, 37° C., at 24 hrs, read-out: solubility in H2O): 7000 µg/mL | S (solubility) ([3]; SGF, 37° C., pH adjusted to 1.8, 1 hr): 730 µg/mL | solubility at 2 h ([3]; pH 1.8, simulated gastric fluid, thermodynamic from solid, SGF, 37° C., pH adjusted to 1.8, 2 hrs): 160 µg/mL | solubility at 4 h ([3]; pH 1.8, simulated gastric fluid, thermodynamic from solid, SGF, 37° C., pH adjusted to 1.8, 4 hrs): 120 µg/mL | solubility at 1 h [3, 5]: 730 µg/mL | solubility at 24 h [3, 5]: 140 µg/mL | solubility at 2 h ([3]; pH 6.5, thermodynamic from solid, FaSSIF, 37° C., pH adjusted to 6.5, 2 hrs): 14 µg/mL | solubility at 4 h ([3]; pH 6.5, thermodynamic from solid, FaSSIF, 37° C., pH adjusted to 6.5, 4 hrs): 11 µg/mL | solubility at 1 h [3, 6]: 29 µg/mL | solubility at 24 h [3, 6]: 6 µg/mL | thermodynamic stability relationship among Meglumine salt forms [4]: thermodynamically more stable anhydrate; also recorded: more thermodynamically stable form; also recorded: thermodynamically more stable form
